From a compilation of properties of binary mixtures (doi:10.1016/j.molliq.2016.06.018)

Assay: xn = mol fraction of the nth substance listed
Conditions: 100 kPa

CCCC[n+]1ccn(C)c1.O=S(=O)([N-]S(=O)(=O)C(F)(F)F)C(F)(F)F + CCCCCCCCN1CCCC1=O
x2 = 0
Conditions | speed of sound [m/s]
298.15 K | 1227.9
303.15 K | 1216.8
308.15 K | 1205.8
313.15 K | 1195
318.15 K | 1184.2
323.15 K | 1173.6

CCCCCCCCN1CCCC1=O + CCCC[n+]1ccn(C)c1.O=S(=O)([N-]S(=O)(=O)C(F)(F)F)C(F)(F)F
speed of sound [m/s]
Conditions | x1 = 0.1125 | x1 = 0.2205 | x1 = 0.3048 | x1 = 0.3915 | x1 = 0.5011 | x1 = 0.5983 | x1 = 0.7076 | x1 = 0.7976 | x1 = 0.8911 | x1 = 1
298.15 K | 1234.8 | 1244.9 | 1255.2 | 1268.2 | 1288.3 | 1310.3 | 1341 | 1371.6 | 1406.7 | 1450.2
303.15 K | – | 1233.4 | 1243.4 | – | 1275.5 | 1297 | – | 1356.6 | 1390.5 | 1432.6
308.15 K | 1212.7 | 1222.1 | 1231.6 | – | – | 1283.7 | 1312.7 | 1341.5 | 1374.3 | –
313.15 K | 1201.8 | – | 1219.9 | 1231.6 | 1250 | 1270.4 | 1298.7 | 1326.5 | 1358.3 | 1398
318.15 K | 1190.9 | 1199.6 | 1208.3 | 1219.6 | 1237.5 | 1257.3 | 1284.9 | 1311.7 | 1342.4 | 1380.9
323.15 K | 1180.1 | 1188.4 | 1196.8 | 1207.6 | 1224.9 | 1244.2 | 1271.2 | 1297.1 | – | 1364
